# Laboratory results published in patent US9255295B2, “Method for evaluating the sensitizing potential of a test compound” (IMMUNOSEARCH, priority 2010, dated 2016).
# Like-named read-outs stand apart in the source and are kept apart here.
# Key:
# [1] = tested on: ARE gene family (AKR1B10, AKR1C1, AKR1C2, CYP1B1, FTH1P, FTL, G6PD, GCLM, NQO2, SLC7A11, TXNRD1, UGT1A1, UGT1A9, YWHAZ, CD36, CYP1A1, GCLC, HMOX1, NQO1, PSME2 …)
# [2] = tested on: genes specific for sensitization (BRAK, CTSS, DAPK2, FABP4, HSP27, IL18, HSP90, IL1R2, TPSAB1, CXCR1, DEFB1, DHFR, EHF, IVL, KRT4, MELANA, NGAL, PDZK1IP1, PI3 …); test: Expression of the other (non-ARE) sensitization-specific genes in EPISKIN reconstructed skin (quantitative RT-PCR); assay type: cell-based, human; conditions: for BRAK expression / CTSS expression / CXCR1 expression / DAPK2 expression / DEFB1 expression / DHFR expression / EHF expression / FABP4 expression / HSP27 expression / HSP90 expression / IL18 expression / IVL expression / KRT4 expression / MELANA expression / NGAL expression / P13 expression / PDZK1iP1 expression / SERPINB3 expression: compared to the control;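 on CTSS NUMBER OF GENES grade: grade scored against expression in the control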;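 on CXCR1 NUMBER OF GENES grade: grade scored against expression in the control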;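 on DAPK2 NUMBER OF GENES grade: grade scored against expression in the control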
# Source text for EPISKIN model: “Sensitizing power” means the ability of a given compound to induce a sensitization reaction according to the concentration of said compound. Sensitizing power is dependent on the quantity of substance necessary to induce sensitization. Thus, the lower the sensitizing quantity necessary to induce a sensitizing response, the stronger the sensitizer is, and vice versa, the higher the sensitizing quantity necessary to induce a sensitizing response, the weaker the sensitizer is.
# Thus, steps 1) and 2) will be done for each of the dilutions.
smiles,measurement,setting,value
C=CCc1ccc(O)c(OC)c1 [Eugenol],ARE >1.3 (number of genes),[1],10
same,TOTAL ARE (number of genes),[1],10
same,AHR expression,"[1]; human, 6 h, 10 %",0.8
same,AKR1B10 expression,"[1]; human, 6 h, 10 %",0.9
same,AKR1C1 expression,"[1]; human, 6 h, 10 %",1.3
same,AKR1C2 expression,"[1]; human, 6 h, 10 %",1.1
same,ARE >1.3 (number of genes),"[1]; human, 6 h, 10 %",3
same,CD36 expression,"[1]; human, 6 h, 10 %",1.7
same,CYP1A1 expression,"[1]; human, 6 h, 10 %",0.5
same,CYP1B1 expression,"[1]; human, 6 h, 10 %",0.6
same,FTH1P expression,"[1]; human, 6 h, 10 %",1.1
same,FTL expression,"[1]; human, 6 h, 10 %",1.1
same,GCLC expression,"[1]; human, 6 h, 10 %",1.3
same,GCLM expression,"[1]; human, 6 h, 10 %",1.1
same,HMOX1 expression,"[1]; human, 6 h, 10 %",1.3
same,NQO1 expression,"[1]; human, 6 h, 10 %",1.1
same,NQO2 expression,"[1]; human, 6 h, 10 %",1.0
same,S100A8 expression,"[1]; human, 6 h, 10 %",1.0
same,SLC7A11 expression,"[1]; human, 6 h, 10 %",1.2
same,TOTAL ARE (number of genes),"[1]; human, 6 h, 10 %",3
same,TXNRD1 expression,"[1]; human, 6 h, 10 %",1.1
same,UGT1A1 expression,"[1]; human, 6 h, 10 %",1.0
same,UGT1A9 expression,"[1]; human, 6 h, 10 %",0.7
same,AHR expression,"[1]; human, 6 h, 50 %",1.3
same,AKR1B10 expression,"[1]; human, 6 h, 50 %",1.0
same,AKR1C1 expression,"[1]; human, 6 h, 50 %",0.7
same,AKR1C2 expression,"[1]; human, 6 h, 50 %",0.7
same,CD36 expression,"[1]; human, 6 h, 50 %",2.3
same,CYP1A1 expression,"[1]; human, 6 h, 50 %",2.3
same,CYP1B1 expression,"[1]; human, 6 h, 50 %",0.9
same,FTH1P expression,"[1]; human, 6 h, 50 %",2.3
same,FTL expression,"[1]; human, 6 h, 50 %",4.2
same,GCLC expression,"[1]; human, 6 h, 50 %",3.2
same,GCLM expression,"[1]; human, 6 h, 50 %",1.1
same,HMOX1 expression,"[1]; human, 6 h, 50 %",2.4
same,NQO1 expression,"[1]; human, 6 h, 50 %",0.7
same,NQO2 expression,"[1]; human, 6 h, 50 %",1.3
same,S100A8 expression,"[1]; human, 6 h, 50 %",1.9
same,SLC7A11 expression,"[1]; human, 6 h, 50 %",2.6
same,TXNRD1 expression,"[1]; human, 6 h, 50 %",3.0
same,UGT1A1 expression,"[1]; human, 6 h, 50 %",0.5
same,UGT1A9 expression,"[1]; human, 6 h, 50 %",25.0
same,sensitizing power (class),EPISKIN model,WEAK
same,BRAK NUMBER OF GENES grade,[2]; 10%,"0 (if this expression is lower, the grade is 0)"
same,CTSS NUMBER OF GENES grade,[2]; 10%,"0 (if this expression is lower, the grade is 0)"
same,CXCR1 NUMBER OF GENES grade,[2]; 10%,"0 (if this expression is lower, the grade is 0)"
same,DAPK2 NUMBER OF GENES grade,[2]; 10%,"1 (If the expression is greater than 1.3 compared to the control, a grade of 11s given)"
same,DEFB1 NUMBER OF GENES grade,[2]; 10%,"0 (if this expression is lower, the grade is 0)"
same,DHFR NUMBER OF GENES grade,[2]; 10%,"0 (if this expression is lower, the grade is 0)"
same,EHF NUMBER OF GENES grade,[2]; 10%,"1 (If the expression is greater than 1.3 compared to the control, a grade of 11s given)"
same,FABP4 NUMBER OF GENES grade,[2]; 10%,"0 (if this expression is lower, the grade is 0)"
same,HSP27 NUMBER OF GENES grade,[2]; 10%,"0 (if this expression is lower, the grade is 0)"
same,HSP90 NUMBER OF GENES grade,[2]; 10%,"0 (if this expression is lower, the grade is 0)"
same,IL18 NUMBER OF GENES grade,[2]; 10%,"0 (if this expression is lower, the grade is 0)"
same,IVL NUMBER OF GENES grade,[2]; 10%,"0 (if this expression is lower, the grade is 0)"
same,KRT4 NUMBER OF GENES grade,[2]; 10%,"0 (if this expression is lower, the grade is 0)"
same,MELANA NUMBER OF GENES grade,[2]; 10%,"1 (If the expression is greater than 1.3 compared to the control, a grade of 11s given)"
same,NGAL NUMBER OF GENES grade,[2]; 10%,"0 (if this expression is lower, the grade is 0)"
same,P13 NUMBER OF GENES grade,[2]; 10%,"0 (if this expression is lower, the grade is 0)"
same,PDZK1iP1 NUMBER OF GENES grade,[2]; 10%,"0 (if this expression is lower, the grade is 0)"
same,SENS >1.3 (number of genes),[2]; 10%,4
same,SERPINB3 NUMBER OF GENES grade,[2]; 10%,"0 (if this expression is lower, the grade is 0)"
same,TOTAL SENS (number of genes),[2]; 10%,4
same,BRAK expression,[2]; 10%,0.7
same,CTSS expression,[2]; 10%,1.0
same,CXCR1 expression,[2]; 10%,0.8
same,DAPK2 expression,[2]; 10%,1.3
same,DEFB1 expression,[2]; 10%,1.1
same,DHFR expression,[2]; 10%,0.8
same,EHF expression,[2]; 10%,1.3
same,FABP4 expression,[2]; 10%,0.6
same,HSP27 expression,[2]; 10%,1.1
same,HSP90 expression,[2]; 10%,1.1
same,IL18 expression,[2]; 10%,1.1
same,IVL expression,[2]; 10%,0.9
same,KRT4 expression,[2]; 10%,0.8
same,MELANA expression,[2]; 10%,1.9
same,NGAL expression,[2]; 10%,0.7
same,P13 expression,[2]; 10%,0.9
same,PDZK1iP1 expression,[2]; 10%,0.9
same,SERPINB3 expression,[2]; 10%,1.2
same,BRAK NUMBER OF GENES grade,[2]; 50%,"0 (if this expression is lower, the grade is 0)"
same,CTSS NUMBER OF GENES grade,[2]; 50%,"0 (if this expression is lower, the grade is 0)"
same,CXCR1 NUMBER OF GENES grade,[2]; 50%,"1 (If the expression is greater than 1.3 compared to the control, a grade of 11s given)"
same,DAPK2 NUMBER OF GENES grade,[2]; 50%,"1 (If the expression is greater than 1.3 compared to the control, a grade of 11s given)"
same,DEFB1 NUMBER OF GENES grade,[2]; 50%,"1 (If the expression is greater than 1.3 compared to the control, a grade of 11s given)"
same,DHFR NUMBER OF GENES grade,[2]; 50%,"0 (if this expression is lower, the grade is 0)"
same,EHF NUMBER OF GENES grade,[2]; 50%,"0 (if this expression is lower, the grade is 0)"
same,FABP4 NUMBER OF GENES grade,[2]; 50%,"1 (If the expression is greater than 1.3 compared to the control, a grade of 11s given)"
same,HSP27 NUMBER OF GENES grade,[2]; 50%,"1 (If the expression is greater than 1.3 compared to the control, a grade of 11s given)"
same,HSP90 NUMBER OF GENES grade,[2]; 50%,"1 (If the expression is greater than 1.3 compared to the control, a grade of 11s given)"
same,IL18 NUMBER OF GENES grade,[2]; 50%,"0 (if this expression is lower, the grade is 0)"
same,IVL NUMBER OF GENES grade,[2]; 50%,"1 (If the expression is greater than 1.3 compared to the control, a grade of 11s given)"
same,KRT4 NUMBER OF GENES grade,[2]; 50%,"1 (If the expression is greater than 1.3 compared to the control, a grade of 11s given)"
same,MELANA NUMBER OF GENES grade,[2]; 50%,"0 (if this expression is lower, the grade is 0)"
same,NGAL NUMBER OF GENES grade,[2]; 50%,"1 (If the expression is greater than 1.3 compared to the control, a grade of 11s given)"
same,P13 NUMBER OF GENES grade,[2]; 50%,"1 (If the expression is greater than 1.3 compared to the control, a grade of 11s given)"
same,PDZK1iP1 NUMBER OF GENES grade,[2]; 50%,"1 (If the expression is greater than 1.3 compared to the control, a grade of 11s given)"
same,SENS >1.3 (number of genes),[2]; 50%,15
same,SERPINB3 NUMBER OF GENES grade,[2]; 50%,"1 (If the expression is greater than 1.3 compared to the control, a grade of 11s given)"
same,TOTAL SENS (number of genes),[2]; 50%,15
same,BRAK expression,[2]; 50%,0.4
same,CTSS expression,[2]; 50%,0.1
same,CXCR1 expression,[2]; 50%,2.2
same,DAPK2 expression,[2]; 50%,1.5
same,DEFB1 expression,[2]; 50%,3.0
same,DHFR expression,[2]; 50%,0.6
same,EHF expression,[2]; 50%,1.2
same,FABP4 expression,[2]; 50%,1.4
same,HSP27 expression,[2]; 50%,5.4
same,HSP90 expression,[2]; 50%,9.1
same,IL18 expression,[2]; 50%,0.7
same,IVL expression,[2]; 50%,2.6
same,KRT4 expression,[2]; 50%,4.6
same,MELANA expression,[2]; 50%,1.0
same,NGAL expression,[2]; 50%,1.3
same,P13 expression,[2]; 50%,1.4
same,PDZK1iP1 expression,[2]; 50%,1.7
same,SERPINB3 expression,[2]; 50%,1.4
